Patent US9884063B2, “Amido-substituted azole compounds” (Bayer Pharma Aktiengesellschaft, priority 2014, dated 2018)

Tests used:
TNKS2 = target: T1, TNKS2 (Homo sapiens, UniProt Q9H2K2); experiment: Modified TNKS2 Assay 2 (auto-parsylation, [3H]-NAD+ SPA); format: biochemical; conditions: 6 nM TNKS2, 96 well
T1 sequence (Q9H2K2 1-1166): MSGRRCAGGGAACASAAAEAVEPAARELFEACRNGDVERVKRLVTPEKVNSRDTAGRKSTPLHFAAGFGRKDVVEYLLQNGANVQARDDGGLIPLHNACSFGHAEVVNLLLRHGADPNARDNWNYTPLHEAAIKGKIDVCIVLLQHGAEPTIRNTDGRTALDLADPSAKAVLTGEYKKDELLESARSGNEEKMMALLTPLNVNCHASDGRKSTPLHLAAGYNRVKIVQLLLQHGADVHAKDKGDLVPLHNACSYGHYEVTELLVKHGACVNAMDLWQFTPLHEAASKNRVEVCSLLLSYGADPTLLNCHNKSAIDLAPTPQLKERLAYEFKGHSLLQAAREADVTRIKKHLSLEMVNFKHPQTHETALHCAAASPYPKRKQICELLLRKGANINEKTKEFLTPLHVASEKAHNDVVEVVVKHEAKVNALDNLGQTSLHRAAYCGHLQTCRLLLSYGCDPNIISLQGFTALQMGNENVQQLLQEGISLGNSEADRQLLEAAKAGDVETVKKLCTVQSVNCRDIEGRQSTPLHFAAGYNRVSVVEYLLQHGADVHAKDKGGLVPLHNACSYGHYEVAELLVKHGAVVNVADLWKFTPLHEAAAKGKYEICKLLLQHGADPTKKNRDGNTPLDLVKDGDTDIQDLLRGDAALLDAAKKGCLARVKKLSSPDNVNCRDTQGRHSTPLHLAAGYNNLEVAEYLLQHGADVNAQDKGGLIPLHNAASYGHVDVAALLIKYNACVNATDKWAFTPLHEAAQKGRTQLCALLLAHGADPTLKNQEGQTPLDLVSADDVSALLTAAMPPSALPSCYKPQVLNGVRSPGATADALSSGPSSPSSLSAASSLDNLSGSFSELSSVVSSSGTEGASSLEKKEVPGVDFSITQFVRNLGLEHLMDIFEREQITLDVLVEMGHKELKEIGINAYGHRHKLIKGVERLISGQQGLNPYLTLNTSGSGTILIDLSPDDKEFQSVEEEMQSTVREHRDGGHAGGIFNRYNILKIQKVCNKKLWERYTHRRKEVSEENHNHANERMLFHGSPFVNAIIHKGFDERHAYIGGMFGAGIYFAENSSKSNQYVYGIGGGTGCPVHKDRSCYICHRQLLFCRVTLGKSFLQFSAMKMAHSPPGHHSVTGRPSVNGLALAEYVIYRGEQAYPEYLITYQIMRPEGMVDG

[1] = tested on: wildtype Wnt signaling cascade; experiment: HEK293 TOP Assay (Super TopFlash luciferase reporter, Wnt-3a stimulated); format: cell-based; conditions: Homo sapiens, HEK293, 16 h, HEK293 TOP reporter cell line, Wnt-3a at EC50, 16 hours incubation, compound dilution series 50 μM to 15 nM
How it was run: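 Compounds (50 μM down to 15 nM, 3.16-fold steps, in CAFTY buffer pH 7.4, 2 mM Ca2+, 0.01% BSA) tested in parallel on TOP and FOP HEK293 reporter lines to define selective wildtype Wnt inhibition. Pathway driven by recombinant human Wnt-3a applied at 2500–5 ng/ml in two-fold dilutions.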

Structure (SMILES)	IC50 (TNKS2)	IC50 [1]
CNC(=O)c1nc[nH]c1C(=O)Nc1ccc(NC(=O)c2ccc(Cl)cc2F)cc1 [Example 333, N^5-{4-[(4-chloro-2-fluorobenzoyl)amino]phenyl}-N^4-methyl-1H-imidazole-4,5-dicarboxamide]	580 nM	950 nM
CC(CN1CCOCC1)NC(=O)c1[nH]cnc1C(=O)Nc1ccc(NC(=O)c2ccc(F)cc2)cc1 (centres unmarked) [Example 294, N^4-{4-[(4-fluorobenzoyl)amino]phenyl}-N^5-[1-(morpholin-4-yl)propan-2-yl]-1H-imidazole-4,5-dicarboxamide]	150 nM	1550 nM
CN(C)CCNC(=O)c1nc[nH]c1C(=O)Nc1ccc(NC(=O)c2ccc(F)cc2Cl)c(F)c1 [Example 73, N^5-{4-[(2-chloro-4-fluorobenzoyl)amino]-3-fluorophenyl}-N^4-[2-(dimethylamino)ethyl]-1H-imidazole-4,5-dicarboxamide]	30 nM	360 nM
Cc1nc(C(=O)Nc2ccc(NC(=O)c3ccc(F)cc3Cl)cc2)c(C(=O)NCCN(C)C)[nH]1 [Example 66, N^4-{4-[(2-chloro-4-fluorobenzoyl)amino]phenyl}-N^5-[2-(dimethylamino)ethyl]-2-methyl-1H-imidazole-4,5-dicarboxamide]	40 nM	310 nM
CN1CCCC(CNC(=O)c2[nH]cnc2C(=O)Nc2ccc(NC(=O)c3ccc(F)cc3Cl)cc2)C1 (centres unmarked) [Example 298, N^4-{4-[(2-chloro-4-fluorobenzoyl)amino]phenyl}-N^5-[(1-methylpiperidin-3-yl)methyl]-1H-imidazole-4,5-dicarboxamide]	60 nM	300 nM
CCc1nc(C(=O)Nc2ccc(NC(=O)c3ccc(F)cc3Cl)cc2)c(C(=O)NC)[nH]1 [Example 68, N^4-{4-[(2-chloro-4-fluorobenzoyl)amino]phenyl}-2-ethyl-N^5-methyl-1H-imidazole-4,5-dicarboxamide]	> 10000 nM	2150 nM
O=C(Nc1ccc(NC(=O)c2[nH]cnc2C(=O)NCCN2CCCCC2)cc1)c1ccc(F)cc1I [Example 62, N^5-{4-[(4-fluoro-2-iodobenzoyl)amino]phenyl}-N^4-[2-(piperidin-1-yl)ethyl]-1H-imidazole-4,5-dicarboxamide]	310 nM	10 nM
C[C@@H]1CCCN(CCNC(=O)c2[nH]cnc2C(=O)Nc2ccc(NC(=O)c3ccc(F)cc3Cl)cc2)C1 [Example 278, N^4-{4-[(2-chloro-4-fluorobenzoyl)amino]phenyl}-N^5-{2-[(3R)-3-methylpiperidin-1-yl]ethyl}-1H-imidazole-4,5-dicarboxamide]	5 nM	90 nM
CCNC(=O)c1nc[nH]c1C(=O)Nc1ccc(NC(=O)c2cnccc2Cl)cc1 [Example 263, N^5-(4-{[(4-chloropyridin-3-yl)carbonyl]amino}phenyl)-N^4-ethyl-1H-imidazole-4,5-dicarboxamide]	500 nM	360 nM
CCNC(=O)c1nc[nH]c1C(=O)Nc1ccc(NC(=O)c2ncccc2Cl)cc1 [Example 261, N^5-(4-{[(3-chloropyridin-2-yl)carbonyl]amino}phenyl)-N^4-ethyl-1H-imidazole-4,5-dicarboxamide]	210 nM	22200 nM
COC(=O)c1nc[nH]c1C(=O)Nc1ccc(NC(=O)c2ccc(F)cc2Cl)c(F)c1 [Example 71, methyl 5-({4-[(2-chloro-4-fluorobenzoyl)amino]-3-fluorophenyl}carbamoyl)-1H-imidazole-4-carboxylate]	110 nM	340 nM
O=C(Nc1ccc(NC(=O)c2[nH]cnc2C(=O)NCCc2ccccn2)cc1)c1ccc(F)cc1Cl [Example 387, N^5-{4-[(2-chloro-4-fluorobenzoyl)amino]phenyl}-N^4-[2-(pyridin-2-yl)ethyl]-1H-imidazole-4,5-dicarboxamide]	150 nM	800 nM
CNC(=O)c1nc[nH]c1C(=O)Nc1ccc(NC(=O)c2c(F)cc(F)cc2F)cc1 [Example 342, N^4-methyl-N^5-{4-[(2,4,6-trifluorobenzoyl)amino]phenyl}-1H-imidazole-4,5-dicarboxamide]	540 nM	800 nM
